The results in this text go back to the NIST ThermoML archive (doi:10.1021/je900404r).

Numbers after ± are expanded uncertainties.

The conditions of the data set: 101 kPa, Liquid, Vibrating tube method.

As to `ClCCCCl` [1,3-dichloropropane], the mass density – broadly, the mass of a sample divided by its volume – turned out to be 1191.93 ± 0.42 kg/m3 (288.15 K), 1179.58 ± 0.42 kg/m3 (298.15 K), 1167.16 ± 0.42 kg/m3 (308.15 K) and 1154.67 ± 0.41 kg/m3 (318.15 K).

As for `ClCCCCCl` [1,4-dichlorobutane], the mass density (288.15 K) came to 1143.49 ± 0.41 kg/m3, the mass density (298.15 K) is 1132.57 ± 0.41 kg/m3, the mass density (308.15 K) worked out at 1121.61 ± 0.41 kg/m3 and the mass density (318.15 K) turned out to be 1110.61 ± 0.41 kg/m3.

Consider `CCCCCl` [1-chlorobutane], for which the mass density was determined as 892.1 ± 0.41 kg/m3 (288.15 K), 881.05 ± 0.41 kg/m3 (298.15 K), 869.86 ± 0.41 kg/m3 (308.15 K) and 858.52 ± 0.41 kg/m3 (318.15 K).

For the compound `O=C1CCCCC1` [cyclohexanone], the mass density reads like this: (288.15 K) 951.69 ± 0.41 kg/m3; (298.15 K) 942.76 ± 0.41 kg/m3; (308.15 K) 933.8 ± 0.41 kg/m3; (318.15 K) 924.82 ± 0.41 kg/m3.

Take `ClC(Cl)Cl` [trichloromethane]: the mass density is, setting by setting: (288.15 K) 1491.86 ± 0.46 kg/m3; (298.15 K) 1473.16 ± 0.46 kg/m3; (308.15 K) 1454.07 ± 0.46 kg/m3; (318.15 K) 1434.72 ± 0.46 kg/m3.
